Measurements from patent US8148391B2 (Cephalon, Inc., priority 2006, dated 2012).

Assays:
[1] = biological target: T1, baculovirus-expressed ALK (Homo sapiens, UniProt Q9UM73); experiment: ALK Kinase Assay (ELISA-type, time-resolved fluorescence); format: biochemical; settings: ALK kinase inhibition, 1 μM ATP; read-out: ALK Activity
T1 construct: host or cells: baculovirus expression system
Method in brief: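 Plates coated with phospholipase C-γ substrate (10 μg/mL in TBS); reaction started with 30 ng/ml ALK and run 15 min at 37° C. Phosphorylated substrate detected with Eu-N1-labeled PT66 antibody. IC50 from sigmoidal variable-slope fit of percent inhibition vs log concentration.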

[2] = biological target: T2, c-Met (cytoplasmic domain) (Homo sapiens, UniProt P08581); experiment: c-Met Kinase Assay (same methods as for ALK, with modifications); format: biochemical; settings: c-Met kinase inhibition, 1 μM ATP; read-out: cMet Activity
T2 construct: 10 ng/mL c-Met (cytoplasmic domain, Invitrogen Corporation #PV3143); purchased Invitrogen Corporation PV3143
T2 sequence (P08581 956-1390 limits assumed): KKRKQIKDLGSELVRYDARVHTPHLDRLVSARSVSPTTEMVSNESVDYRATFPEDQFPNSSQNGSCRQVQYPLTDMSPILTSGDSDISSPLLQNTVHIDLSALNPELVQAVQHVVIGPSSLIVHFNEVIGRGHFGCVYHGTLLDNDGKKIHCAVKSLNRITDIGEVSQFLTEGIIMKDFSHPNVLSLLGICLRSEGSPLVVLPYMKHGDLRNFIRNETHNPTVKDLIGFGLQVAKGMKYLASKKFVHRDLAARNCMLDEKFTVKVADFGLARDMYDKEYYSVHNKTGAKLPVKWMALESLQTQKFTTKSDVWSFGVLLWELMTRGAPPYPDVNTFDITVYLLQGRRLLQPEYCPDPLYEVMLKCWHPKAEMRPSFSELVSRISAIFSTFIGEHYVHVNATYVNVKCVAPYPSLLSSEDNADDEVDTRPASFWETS
Method in brief: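 Plates were coated with phospholipase C-γ substrate (10 μg/mL) in TBS, and the reaction was started with 10 ng/mL c-Met cytoplasmic domain and run 15 min at 37 °C. Phosphoproduct was detected with Eu-N1-labelled PT66 antibody. IC50 came from a variable-slope sigmoidal fit of percent inhibition vs log concentration.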

T1 sequence (Q9UM73 19-1620): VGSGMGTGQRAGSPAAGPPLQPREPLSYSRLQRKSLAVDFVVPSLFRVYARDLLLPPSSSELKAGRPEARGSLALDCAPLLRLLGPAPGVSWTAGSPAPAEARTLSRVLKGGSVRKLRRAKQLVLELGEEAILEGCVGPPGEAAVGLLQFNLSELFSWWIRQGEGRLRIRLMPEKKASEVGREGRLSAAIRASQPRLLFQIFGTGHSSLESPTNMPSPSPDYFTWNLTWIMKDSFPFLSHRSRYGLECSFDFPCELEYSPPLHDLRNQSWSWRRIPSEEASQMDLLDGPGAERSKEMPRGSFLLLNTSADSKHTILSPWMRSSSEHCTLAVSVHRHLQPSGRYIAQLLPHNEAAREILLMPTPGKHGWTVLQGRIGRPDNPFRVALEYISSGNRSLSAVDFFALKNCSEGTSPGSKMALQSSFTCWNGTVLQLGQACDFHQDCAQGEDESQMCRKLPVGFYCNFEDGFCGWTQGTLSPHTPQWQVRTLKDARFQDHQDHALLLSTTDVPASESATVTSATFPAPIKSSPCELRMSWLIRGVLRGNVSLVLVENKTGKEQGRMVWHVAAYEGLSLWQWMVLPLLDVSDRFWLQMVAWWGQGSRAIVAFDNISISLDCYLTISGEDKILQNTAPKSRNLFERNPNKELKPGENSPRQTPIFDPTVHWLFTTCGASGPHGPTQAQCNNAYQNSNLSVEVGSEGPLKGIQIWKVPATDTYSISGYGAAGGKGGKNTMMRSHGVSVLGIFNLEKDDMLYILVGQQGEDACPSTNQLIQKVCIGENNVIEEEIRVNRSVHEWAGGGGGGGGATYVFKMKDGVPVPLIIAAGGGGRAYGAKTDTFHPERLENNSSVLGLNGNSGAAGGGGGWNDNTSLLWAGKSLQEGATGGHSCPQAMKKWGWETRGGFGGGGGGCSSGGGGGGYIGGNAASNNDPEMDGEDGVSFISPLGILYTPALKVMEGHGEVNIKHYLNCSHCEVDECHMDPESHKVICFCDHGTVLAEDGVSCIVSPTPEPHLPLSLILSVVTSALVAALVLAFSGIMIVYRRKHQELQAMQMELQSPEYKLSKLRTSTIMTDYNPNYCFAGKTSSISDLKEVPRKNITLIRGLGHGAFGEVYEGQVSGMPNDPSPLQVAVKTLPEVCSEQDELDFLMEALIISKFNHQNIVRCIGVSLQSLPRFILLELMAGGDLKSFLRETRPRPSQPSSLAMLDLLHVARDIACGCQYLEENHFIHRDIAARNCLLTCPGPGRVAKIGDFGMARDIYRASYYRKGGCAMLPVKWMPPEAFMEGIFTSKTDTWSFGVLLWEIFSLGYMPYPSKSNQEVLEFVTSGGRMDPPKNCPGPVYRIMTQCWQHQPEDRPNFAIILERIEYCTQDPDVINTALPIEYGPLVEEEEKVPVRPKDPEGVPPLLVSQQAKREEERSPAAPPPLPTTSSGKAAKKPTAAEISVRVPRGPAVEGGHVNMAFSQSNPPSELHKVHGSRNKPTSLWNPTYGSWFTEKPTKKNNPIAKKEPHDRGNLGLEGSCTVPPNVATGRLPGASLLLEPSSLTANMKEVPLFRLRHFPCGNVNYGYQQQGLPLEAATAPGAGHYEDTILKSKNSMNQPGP

| SMILES | IC50 [1] | IC50 [2] |
| --- | --- | --- |
| CC(=O)NCc1ccccc1Nc1nc(Nc2ccc3c(c2)CCOC(=O)N3C)ncc1Cl [Example 1793, N-{2-[5-Chloro-2-(5-methyl-6-oxo-5,6,8,9-tetrahydro-7-oxa-5-aza-benzocyclohepten-2-ylamino)-pyrimidin-4-ylamino]-benzyl}-acetamide] | 100 to 1000 nM | 1000 to 10000 nM |
| CNC(=O)c1ccccc1Nc1nc(Nc2ccc3c(c2)CNC(=O)CC3)ncc1Cl [Example 1794, 2-[5-Chloro-2-(3-oxo-2,3,4,5-tetrahydro-1H-benzo[c]azepin-8-ylamino)-pyrimidin-4-ylamino]-N-methylbenzamide] | < 100 nM | < 100 nM |
| CNC(=O)c1scc(C)c1Nc1nc(Nc2ccc3c(c2)CNC(=O)CC3)ncc1Cl [Example 1795, 3-[5-Chloro-2-(3-oxo-2,3,4,5-tetrahydro-1H-benzo[c]azepin-8-ylamino)-pyrimidin-4-ylamino]-4-methyl-thiophene-2-carboxylic acid methylamide] | 1000 to 10000 nM | < 100 nM |
| CNC(=O)c1cccc(Cl)c1Nc1nc(Nc2ccc3c(c2)CNC(=O)CC3)ncc1Cl [Example 1796, 3-Chloro-2-[5-chloro-2-(3-oxo-2,3,4,5-tetrahydro-1H-benzo[c]azepin-8-ylamino)-pyrimidin-4-ylamino]-N-methylbenzamide] | 100 to 1000 nM | < 100 nM |
| NC(=O)C1C2C=CC(C2)C1Nc1nc(Nc2ccc3c(c2)CNC(=O)CC3)ncc1Cl (stereo not drawn) [Example 1797, 3-exo-[5-Chloro-2-(3-oxo-2,3,4,5-tetrahydro-1H-benzo[c]azepin-8-ylamino)-pyrimidin-4-yl]aminobicyclo[2.2.1]hept-5-ene-2-exo-carboxamide] | < 100 nM | 100 to 1000 nM |
| CNC(=O)c1scc(C)c1Nc1nc(Nc2ccc3c(c2)CN(C)C(=O)CC3)ncc1Cl [Example 1799, 3-[5-Chloro-2-(2-methyl-3-oxo-2,3,4,5-tetrahydro-1H-benzo[c]azepin-8-ylamino)-pyrimidin-4-ylamino]-4-methyl-thiophene-2-carboxylic acid methylamide] | < 100 nM | < 100 nM |
| CNC(=O)c1ccccc1N(C)c1nc(Nc2ccc3c(c2)CN(C)C(=O)CC3)ncc1F [Example 1800, 2-{[5-Fluoro-2-(2-methyl-3-oxo-2,3,4,5-tetrahydro-1H-benzo[c]azepin-8-ylamino)-pyrimidin-4-yl]-methyl-amino}-N-methyl-benzamide] | 1000 to 10000 nM | < 100 nM |
| CNC(=O)c1cc(C)cc(C)c1Nc1nc(Nc2ccc3c(c2)CN(C)C(=O)CC3)ncc1Cl [Example 1801, 2-[5-Chloro-2-(2-methyl-3-oxo-2,3,4,5-tetrahydro-1H-benzo[c]azepin-8-ylamino)-pyrimidin-4-ylamino]-3,5,N-trimethyl-benzamide] | 1000 to 10000 nM | > 10000 nM |
| CN1Cc2cc(Nc3ncc(Cl)c(Nc4ccccc4-c4nccn4C)n3)ccc2CCC1=O [Example 1802, 8-{5-Chloro-4-[2-(1-methyl-1H-imidazol-2-yl)-phenylamino]-pyrimidin-2-ylamino}-2-methyl-1,2,4,5-tetrahydro-benzo[c]azepin-3-one] | 1000 to 10000 nM | 100 to 1000 nM |
| CN1Cc2cc(Nc3ncc(Cl)c(Nc4cccc5c4OC(F)(F)O5)n3)ccc2CCC1=O [Example 1803, 8-[5-Chloro-4-(2,2-difluoro-benzo[1,3]dioxol-4-ylamino)-pyrimidin-2-ylamino]-2-methyl-1,2,4,5-tetrahydro-benzo[c]azepin-3-one] | < 100 nM | 100 to 1000 nM |
| CN1Cc2cc(Nc3ncc(Cl)c(Nc4ccccc4-c4cc[nH]n4)n3)ccc2CCC1=O [Example 1804, 8-{5-Chloro-4-[2-(1H-pyrazol-3-yl)-phenylamino]-pyrimidin-2-ylamino}-2-methyl-1,2,4,5-tetrahydro-benzo[c]azepin-3-one] | < 100 nM | 100 to 1000 nM |
| CNC(=O)c1cccc(Cl)c1Nc1nc(Nc2ccc3c(c2)CN(C)C(=O)CC3)ncc1Cl [Example 1805, 3-Chloro-2-[5-chloro-2-(2-methyl-3-oxo-2,3,4,5-tetrahydro-1H-benzo[c]azepin-8-ylamino)-pyrimidin-4-ylamino]-N-methyl-benzamide] | < 100 nM | 100 to 1000 nM |
| CNC(=O)c1cccc(F)c1Nc1nc(Nc2ccc3c(c2)CN(C)C(=O)CC3)ncc1Cl [Example 1806, 3-Fluoro-2-[5-chloro-2-(2-methyl-3-oxo-2,3,4,5-tetrahydro-1H-benzo[c]azepin-8-ylamino)-pyrimidin-4-ylamino]-N-methyl-benzamide] | 1000 to 10000 nM | < 100 nM |
| CNC(=O)c1c(Cl)sc(Cl)c1Nc1nc(Nc2ccc3c(c2)CN(C)C(=O)CC3)ncc1Cl [Example 1807, 2,5-Dichloro-4-[5-chloro-2-(2-methyl-3-oxo-2,3,4,5-tetrahydro-1H-benzo[c]azepin-8-ylamino)-pyrimidin-4-ylamino]-thiophene-3-carboxylic acid methylamide] | < 100 nM | < 100 nM |
| CNCc1ccccc1Nc1nc(Nc2ccc3c(c2)CN(C)C(=O)CC3)ncc1Cl [Example 1808, 8-[5-Chloro-4-(2-methylaminomethyl-phenylamino)-pyrimidin-2-ylamino]-2-methyl-1,2,4,5-tetrahydro-benzo[c]azepin-3-one] | 1000 to 10000 nM | < 100 nM |
| CNC(=O)c1cc(F)ccc1Nc1nc(Nc2ccc3c(c2)CN(C)C(=O)CC3)ncc1Cl [Example 1809, 2-[5-Chloro-2-(2-methyl-3-oxo-2,3,4,5-tetrahydro-1H-benzo[c]azepin-8-ylamino)-pyrimidin-4-ylamino]-5-fluoro-N-methyl-benzamide] | 1000 to 10000 nM | 1000 to 10000 nM |
| CN1Cc2cc(Nc3ncc(Cl)c(Nc4ccccc4OCC#N)n3)ccc2CCC1=O [Example 1810, {2-[5-Chloro-2-(2-methyl-3-oxo-2,3,4,5-tetrahydro-1H-benzo[c]azepin-8-ylamino)-pyrimidin-4-ylamino]-phenoxy}-acetonitrile] | < 100 nM | < 100 nM |
| CNC(=O)c1ccccc1Nc1nc(Nc2ccc3c(c2)CC(=O)NCC3)ncc1Cl [Example 1811, 2-[5-Chloro-2-(4-oxo-2,3,4,5-tetrahydro-1H-benzo[d]azepin-7-ylamino)-pyrimidin-4-ylamino]-N-methylbenzamide] | < 100 nM | < 100 nM |
| CNC(=O)c1scc(C)c1Nc1nc(Nc2ccc3c(c2)CC(=O)NCC3)ncc1Cl [Example 1812, 3-[5-Chloro-2-(4-oxo-2,3,4,5-tetrahydro-1H-benzo[d]azepin-7-ylamino)-pyrimidin-4-ylamino]-4-methyl-thiophene-2-carboxylic acid methylamide] | < 100 nM | < 100 nM |
| O=C1Cc2ccc(Nc3ncc(Cl)c(Nc4ccccc4-n4cccn4)n3)cc2CCN1 [Example 1813, 7-[5-Chloro-4-(2-pyrazol-1-yl-phenylamino)-pyrimidin-2-ylamino]-1,3,4,5-tetrahydro-benzo[d]azepin-2-one] | 1000 to 10000 nM | < 100 nM |
| CNC(=O)c1cc(C)cc(C)c1Nc1nc(Nc2ccc3c(c2)CCNC(=O)C3)ncc1Cl [Example 1814, 2-[5-Chloro-2-(2-oxo-2,3,4,5-tetrahydro-1H-benzo[d]azepin-7-ylamino)-pyrimidin-4-ylamino]-3,5,N-trimethyl-benzamide] | < 100 nM | 100 to 1000 nM |
| CNC(=O)c1ccccc1Nc1nc(Nc2ccc3c(c2)CC(=O)N(C)CC3)ncc1Cl [Example 1815, 2-[5-Chloro-2-(3-methyl-4-oxo-2,3,4,5-tetrahydro-1H-benzo[d]azepin-7-ylamino)-pyrimidin-4-ylamino]-N-methylbenzamide] | 1000 to 10000 nM | 100 to 1000 nM |
| CNC(=O)c1scc(C)c1Nc1nc(Nc2ccc3c(c2)CC(=O)N(C)CC3)ncc1Cl [Example 1816, 3-[5-Chloro-2-(3-methyl-4-oxo-2,3,4,5-tetrahydro-1H-benzo[d]azepin-7-ylamino)-pyrimidin-4-ylamino]-4-methyl-thiophene-2-carboxylic acid methylamide] | < 100 nM | 100 to 1000 nM |
| CNC(=O)c1cccc(Cl)c1Nc1nc(Nc2ccc3c(c2)CC(=O)N(C)CC3)ncc1Cl [Example 1817, 3-Chloro-2-[5-chloro-2-(3-methyl-4-oxo-2,3,4,5-tetrahydro-1H-benzo[d]azepin-7-ylamino)-pyrimidin-4-ylamino]-N-methylbenzamide] | 1000 to 10000 nM | 100 to 1000 nM |
| CNC(=O)c1ncccc1Nc1nc(Nc2ccc3c(c2)CC(=O)N(C)CC3)ncc1Cl [Example 1820, 3-[5-Chloro-2-(3-methyl-4-oxo-2,3,4,5-tetrahydro-1H-benzo[d]azepin-7-ylamino)-pyrimidin-4-ylamino]-pyridine-2-carboxylic acid methylamide] | < 100 nM | 1000 to 10000 nM |
| CNC(=O)c1cnn(C)c1Nc1nc(Nc2ccc3c(c2)CC(=O)N(C)CC3)ncc1Cl [Example 1821, 5-[5-Chloro-2-(3-methyl-4-oxo-2,3,4,5-tetrahydro-1H-benzo[d]azepin-7-ylamino)-pyrimidin-4-ylamino]-1-methyl-1H-pyrazole-4-carboxylic acid methylamide] | 100 to 1000 nM | 100 to 1000 nM |
| CC(C)[C@@H](Nc1nc(Nc2ccc3c(c2)CC(=O)N(C)CC3)ncc1Cl)C(N)=O [Example 1822, (R)-2-[5-Chloro-2-(3-methyl-4-oxo-2,3,4,5-tetrahydro-1H-benzo[d]azepin-7-ylamino)-pyrimidin-4-ylamino]-3-methyl-butyramide] | 1000 to 10000 nM | 1000 to 10000 nM |
